Experimental data published in patent US20020107197A1, “Ligands for G protein coupled receptors and methods of using them” (priority 2000, published 2002).

Experiments:
GPR4 [1] = target: T1, GPR4 (Homo sapiens, UniProt P46093); assay: Cell migration in modified Boyden chamber, GPR4-ires-GFP vs GFP Swiss 3T3 cells; assay type: cell-based; settings: for increase of cell migration over GFP-Swiss 3T3 cells: 100 nM, lower chamber only; for chemokinetic assay: cell motility vs controls: lipid 100 nM in both upper and lower chambers, GFP or GFP-GPR4 Swiss 3T3 cells
T1 construct: were used to generate full length GPR4, which was digested with EcoRI and Xba I and cloned into the pBs3HA vector; expressed in transfected cells
T1 sequence (P46093 whole entry): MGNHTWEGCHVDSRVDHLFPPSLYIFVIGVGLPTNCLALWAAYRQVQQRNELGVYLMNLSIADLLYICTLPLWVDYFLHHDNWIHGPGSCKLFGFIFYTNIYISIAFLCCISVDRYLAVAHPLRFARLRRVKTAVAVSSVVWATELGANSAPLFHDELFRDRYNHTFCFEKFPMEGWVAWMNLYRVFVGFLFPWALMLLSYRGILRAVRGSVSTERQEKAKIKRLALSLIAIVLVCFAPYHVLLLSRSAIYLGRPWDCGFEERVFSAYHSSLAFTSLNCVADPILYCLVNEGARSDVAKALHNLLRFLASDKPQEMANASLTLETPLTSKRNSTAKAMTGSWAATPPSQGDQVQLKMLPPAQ
Protocol: Chemotaxis was measured in a modified Boyden chamber assay. Briefly, different lipids were added to the lower chambers. GPR4-ires-GFP- and GFP-Swiss 3T3 cells were serum starved for 4 h, trypsinized, and seeded in the upper chambers of Boyden-transwell plates (Corning Inc., Corning, N.Y.). The chambers were incubated for 6 to 8 h. The number of cells that migrated to the lower face of the membrane was counted in 4 random fields. Data are represented as the average ±SD of three independent experiments. For the chemokinetic assay, the same concentrations of lipids were added to both the upper and lower chambers. For Rho inhibition studies, C3-exoenxyme was transiently transfected into Swiss 3T3 cells and cell migration assays were performed 48 hours later.

GPR4 [2] = target: T1, GPR4; assay: Internalization of GPR4-GFP in HEK293 cells (confocal microscopy); assay type: cell-based; settings: 1 μM lipid, 37° C., GPR4-GFP HEK293 cells
Protocol: pGPR4-GFP stably expressing HEK293 cells were cultured in 6 cm tissue culture dishes in RPMI1640 with 10% FBS. After 16-24 h serum starvation, cells were treated with different lipids at 37° C. for 2 h. Cells were washed with cold PBS and fixed with 4% paraformaldehyde in PBS. The subcellular localization of GPR4-GFP protein was visualized under a Leica TV confocal fluorescence microscope with a 63× oil immersion lens (Wetzler, Heidelberg, Germany). The excitation and emission wavelengths were 488 nm and 515-540 nm, respectively.
G protein coupled receptors undergo agonist-dependent desensitization and internalization. When HEK293 cells are transfected with the pEGFP-N1 vector, GFP protein is expressed in the cytosol of the cells. The GPR4-GFP and TDAG8-GFP fusion proteins, on the other hand, was expressed only on the plasma membrane.

GPR4 [3] = target: T1, GPR4; assay: DNA synthesis ([3H]thymidine incorporation) in GPR4-infected Swiss 3T3 cells; assay type: cell-based; settings: 3 μM, GPR4-infected Swiss 3T3 cells
Protocol: The effect of SPC and LPC on DNA synthesis was measured using [^3H] thymidine incorporation. Briefly, GPR4-ires-GFP- and GFP-Swiss 3T3 cells were plated in 96-well plates, serum-starved for 24 h, and treated with SPC, LPC, or other lipids in serum-free DMEM for 24 h. Cells were incubated with 0.75 μCi/ml [^3H]thymidine in serum-free DMEM for the last 18 h. Cells were harvested onto filter papers presoaked in 1% polyethylenimine using the automated cell harvester HARVEST 96. Incorporated [^3H]thymidine was counted in a 1450 Microbeta Trilux Liquid Scintillation and Luminescence Counter (Perkin-Elmer-Wallac, Inc.).

TDAG8 [4] = target: T2, TDAG8 (Homo sapiens, UniProt Q8IYL9); assay: SRE luciferase reporter in TDAG8-transfected HEK293 cells; assay type: cell-based; settings: lipid 1 μM, TDAG8-transfected HEK293 cells
T2 construct: expressed in transfected cells
T2 sequence (Q8IYL9 whole entry): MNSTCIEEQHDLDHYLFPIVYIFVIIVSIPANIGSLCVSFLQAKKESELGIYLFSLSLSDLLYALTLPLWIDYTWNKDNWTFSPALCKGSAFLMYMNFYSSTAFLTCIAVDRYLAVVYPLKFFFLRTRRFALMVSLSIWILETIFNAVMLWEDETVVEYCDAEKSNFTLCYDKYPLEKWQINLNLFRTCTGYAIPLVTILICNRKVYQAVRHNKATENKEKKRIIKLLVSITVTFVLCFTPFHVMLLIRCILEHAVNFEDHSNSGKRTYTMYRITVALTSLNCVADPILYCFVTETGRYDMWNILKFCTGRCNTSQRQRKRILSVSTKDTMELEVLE

TDAG8 [5] = target: T2, TDAG8; assay: MAP kinase reporter system in TDAG8 co-transfected HEK293 cells; assay type: cell-based; settings: 1-5 μM
Text: To further explore the TDAG8-mediated cellular response to SPC, MAP kinase activation was examined using the MAP kinase reporter system from Stratagene.

OGR1 = target: T3, OGR1 (Homo sapiens, UniProt Q15743); assay: SPC binding affinity for OGR1
T3 construct: expressed in transfected cells
T3 sequence (Q15743 whole entry, species assumed): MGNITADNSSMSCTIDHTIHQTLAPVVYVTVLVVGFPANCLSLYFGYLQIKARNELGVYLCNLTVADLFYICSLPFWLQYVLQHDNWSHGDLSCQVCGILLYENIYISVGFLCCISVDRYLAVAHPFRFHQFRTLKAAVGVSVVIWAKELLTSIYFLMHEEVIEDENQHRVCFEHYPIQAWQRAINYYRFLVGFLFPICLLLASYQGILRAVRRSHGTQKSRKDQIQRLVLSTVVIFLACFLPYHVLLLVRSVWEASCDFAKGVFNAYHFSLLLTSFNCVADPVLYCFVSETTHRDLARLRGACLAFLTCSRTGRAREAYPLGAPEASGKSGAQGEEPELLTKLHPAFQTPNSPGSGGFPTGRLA

TDAG8 [6] = target: T2, TDAG8; assay: Binding of phospholipids to TDAG8
Protocol: To characterize the binding of SPC and LPC to GPR4 and TDAG8, we conducted radioligand binding assays. CHO cells were chosen for GPR4 binding assays, since HEK293 cells express relatively high levels of endogenous GPR4. CHO cells stably transfected with empty vector or GPR4 were serum starved for 20 h, then collected after exposure to 2 mM EDTA in PBS. The pelleted cells were stored at −80° C. until use. Binding assays were performed essentially as described previously (Xu et al. (2000) Nat Cell Biol 2, 261-267), except binding was performed at 4° C. Briefly, frozen cells (10^6 cells/ml) were homogenized in a binding buffer. Assays were performed in 96-well plates in triplicate with 100 μl cell homogenate (equivalent to 10^5 cells/well). Different amounts of [^3H]SPC or [^3H]16:0-LPC were added to the cell homogenates in 50 μl of binding buffer, in the presence or absence of cold SPC or 16:0-LPC, or other competitors. The plates were incubated at 4° C. for 120 min, unless otherwise indicated. Cell-bound [^3H]SPC or [^3H]LPC was collected onto a filter (Printed Filtermat A, Wallac, Gaithersburg, Md.) using an automated cell harvester (HARVESTER 96, Tomtec, Orange, Conn.). Specific binding was calculated by subtraction of nonspecific binding (binding detected in the presence of 100-fold excess unlabeled SPC or 16:0-LPC) from the total binding.
Using functional and binding assays, we have identified the ligands for TDAG8.

cells = settings: cited from earlier work

Row | Compound | increase of cell migration over GFP-Swiss 3T3 cells (GPR4 [1]) [fold] | chemokinetic assay: cell motility vs controls (GPR4 [1]) | internalization of GPR4 (GPR4 [2]) | increase of [3H]thymidine incorporation (GPR4 [3]) [fold] | activation of SRE reporter (TDAG8 [4]) [fold] | activation of p42/44 MAP kinase (reporter luciferase activity) (TDAG8 [5]) | Kd (OGR1) [nM] | binding to TDAG8 (TDAG8 [6]) | concentration at which cells are lysed (cells) [µM]
1 | CCCCCCCCCCCCCCCC(=O)OC[C@@H](O)COP(=O)([O-])OCC[N+](C)(C)C [16:0-LPC] | 1.7 | did not significantly change cell motility | induced internalization of GPR4 | 1.6 | 3.1 |  |  |  | 
2 | CCCCCCCCCCCCC/C=C/[C@@H](O)[C@@H](N)COP(=O)([O-])OCC[N+](C)(C)C [SPC, Sphingosylphosphorylcholine] | 2.0 | did not significantly change cell motility | induced internalization of GPR4 |  | 4 | induced activation of p42/44 MAP kinase | 33 | able to bind to TDAG8 | 
3 | lysophosphatidylcholine [LPC] |  |  |  |  |  | induced activation of p42/44 MAP kinase |  | able to bind to TDAG8 | > 30
